Peptide text beside a SMILES is read from it.
Legend:
trypsin [1] = test: Trypsin resistance measured by HPLC (residue rate); assay type: in vitro ADME
From the text: The substrate was hydrolyzed with trypsin, and the peak area of the sample, which added the stop-buffer at the start point, was set to 100%.

GLP-1R [2] = molecular target: T1, GLP-1R (Homo sapiens, UniProt P43220); test: CRE-luciferase reporter-gene assay, CHO cells stably expressing human GLP-1 receptor; assay type: cell-based; settings: 4-h culture with peptide, 10-step 5-fold dilution from 250 nmol/L, mean ± SEM, n = 3
T1 construct: expressed in transfected cells
T1 sequence (P43220 24-463): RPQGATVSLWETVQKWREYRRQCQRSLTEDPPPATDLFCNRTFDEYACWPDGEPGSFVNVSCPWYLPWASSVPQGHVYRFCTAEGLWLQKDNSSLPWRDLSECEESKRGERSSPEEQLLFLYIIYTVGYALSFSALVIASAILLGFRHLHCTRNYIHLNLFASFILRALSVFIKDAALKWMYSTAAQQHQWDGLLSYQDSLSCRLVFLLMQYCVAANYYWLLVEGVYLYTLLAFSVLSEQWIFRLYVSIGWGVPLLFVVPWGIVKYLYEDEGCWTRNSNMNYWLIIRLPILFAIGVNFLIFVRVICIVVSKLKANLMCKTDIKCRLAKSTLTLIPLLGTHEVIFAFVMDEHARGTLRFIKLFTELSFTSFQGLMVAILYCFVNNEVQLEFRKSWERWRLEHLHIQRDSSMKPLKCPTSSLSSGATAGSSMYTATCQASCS
Experimental: A cyclic adenosine monophosphate response element (CRE)-luciferase based reporter-gene assays, as a surrogate for cyclic adenosine monophosphate (cAMP) formation, were used to measure the abilities of the analogs to activate GLP-1R.
Cells were grown at 37 °C with 5% CO2 in Dulbecco’s modified Eagle’s medium-F12 supplemented with 10% fetal bovine serum (FBS), 4.5 g/L glucose, 100 units/ml penicillin, 100 mg/mL streptomycin, 0.6 mg/mL hygromycin B and 1 mg/mL G418. […] Each well contained 20,000 cells. The initial concentration of each analog and positive control was 250 nmol/L, which was diluted 5 times to produce a 10-step gradient, and each well contained 20 μL. After 4-h culture, 100 μL of a chemical light-emitting substrate was added to each well. Fluorescence was measured with an EnVision 2104 Multilabel Reader (PerkinElmer, Houston, TX, USA) after a 40-min oscillation at 25 °C.

GLP-1R [3] = molecular target: T1, GLP-1R; test: CHO cell cAMP accumulation assay (ELISA); assay type: cell-based; settings: 30 min incubation, 0.5 mM IBMX, 3-parameter non-linear regression, n = 3
Experimental: CHO cells were stably transfected with GLP-1R and grown in conditions described above. […] After 4-h culture, cells were treated with compounds diluted in assay buffer to concentrations within the 10^−4–10^4 nM range and incubated for 30 min. Cells were lysed by freezing and thawing three times. The samples were then assayed according to the cAMP ELISA assay kit protocol (Jiancheng, Nanjing, China).

[4] = mouse, in vivo
Experimental: (§1) Retro orbital blood collections were performed on mice at different time points (0, 1, 2, 3, 4, 6, 8, 10 and 12 h).

in vivo = settings: male, C57BL/6J, mouse
Experimental: as §1

trypsin [5] = test: trypsin; settings: up to 60 min

Q: With CC[C@H](C)[C@H](NC(=O)[C@H](Cc1ccccc1)NC(=O)[C@H](CC(C)C)NC(=O)[C@H](CC(C)C)NC(=O)[C@@H](NC(=O)[C@H](C)NC(=O)[C@H](CCC(=O)O)NC(=O)[C@H](CCC(=O)O)NC(=O)[C@H](CCC(=O)O)NC(=O)[C@H](CCSC)NC(=O)[C@H](CCC(N)=O)NC(=O)[C@H](CCSC)NC(=O)[C@H](CO)NC(=O)[C@H](CC(C)C)NC(=O)[C@H](CC(=O)O)NC(=O)[C@H](CO)NC(=O)[C@@H](NC(=O)[C@H](Cc1ccccc1)NC(=O)[C@@H](NC(=O)CNC(=O)[C@H](CCC(=O)O)NC(=O)CNC(=O)[C@@H](N)Cc1c[nH]cn1)[C@@H](C)O)[C@@H](C)O)C(C)C)C(=O)N[C@@H](CCC(=O)O)C(=O)N[C@@H](Cc1c[nH]c2ccccc12)C(=O)N[C@@H](CC(C)C)C(=O)N[C@@H](CCSC)C(=O)N[C@@H](CC(N)=O)C(=O)NCC(=O)NCC(=O)N1CCC[C@H]1C(=O)N[C@@H](CO)C(=O)N[C@@H](CO)C(=O)NCC(=O)N[C@@H](C)C(=O)N1CCC[C@H]1C(=O)N1CCC[C@H]1C(=O)N1CCC[C@H]1C(=O)N[C@@H](CO)C(=O)N[C@@H](CS)C(=O)O [TSME-1] (H-HGEGTFTSDLSMQMEEEAVLLFIEWLMNGGPSSGAPPPSC-OH) as the compound, how does the “Residue rate at 30 min” value (trypsin [1]) read?
A: The value was 100% ± 0%.

Q: And the remaining at 1 h (trypsin [1]; isolated enzyme trypsin)?
A: The remaining at 1 h was 100%.

Q: What about the EC50 (GLP-1R [2]) of the same compound?
A: The EC50 was 0.38 nM.

Q: What about the EC50 (GLP-1R [3]) of the same compound?
A: The EC50 was 1.1 nM.

Q: What about the Relative bioavailability [4] of the same compound?
A: Its Relative bioavailability is 0.881%.

Q: And the “Time to peak concentration” value ([4]; po)?
A: The value was “An hour”.

Q: What about the AUC(0-t) (in vivo; po) of the same compound?
A: The AUC(0-t) was 0.56 ± 0.15 ng·h/mL.

Q: And the Cmax (in vivo; po, 2.12 mg/kg)?
A: Its Cmax is 0.2 ± 0.05 ng/mL.

Q: What about the AUC(0-t) (in vivo; sc) of the same compound?
A: Its AUC(0-t) is 3.17 ± 0.72 ng·h/mL.

Q: With CC[C@H](C)[C@H](NC(=O)[C@H](Cc1ccccc1)NC(=O)[C@H](CC(C)C)NC(=O)[C@@H](NC(=O)[C@@H](NC(=O)[C@H](C)NC(=O)[C@H](CCC(=O)O)NC(=O)[C@H](CCC(=O)O)NC(=O)[C@H](CCC(=O)O)NC(=O)[C@H](CCSC)NC(=O)[C@H](CCC(N)=O)NC(=O)[C@@H](NC(=O)[C@H](CO)NC(=O)[C@H](CC(C)C)NC(=O)[C@H](CC(=O)O)NC(=O)[C@H](CO)NC(=O)[C@@H](NC(=O)[C@H](Cc1ccccc1)NC(=O)[C@@H](NC(=O)CNC(=O)[C@H](CCC(=O)O)NC(=O)CNC(=O)[C@@H](N)Cc1c[nH]cn1)[C@@H](C)O)[C@@H](C)O)C(C)C)C(C)C)C(C)C)C(=O)N[C@@H](CCC(=O)O)C(=O)N[C@@H](Cc1c[nH]c2ccccc12)C(=O)N[C@@H](CC(C)C)C(=O)N[C@H](C(=O)N[C@@H](CC(N)=O)C(=O)NCC(=O)NCC(=O)N1CCC[C@H]1C(=O)N[C@@H](CO)C(=O)N[C@@H](CO)C(=O)NCC(=O)N[C@@H](C)C(=O)N1CCC[C@H]1C(=O)N1CCC[C@H]1C(=O)N1CCC[C@H]1C(=O)N[C@@H](CO)C(=O)N[C@@H](CS)C(=O)O)C(C)C [TSME-3] (H-HGEGTFTSDLSVQMEEEAVVLFIEWLVNGGPSSGAPPPSC-OH) as the compound, how does the EC50 (GLP-1R [2]) read?
A: Its EC50 is 19.2 nM.

Q: Which EC50 (GLP-1R [2]) does the source give for CC[C@H](C)[C@H](NC(=O)[C@H](Cc1ccccc1)NC(=O)[C@H](CC(C)C)NC(=O)[C@H](Cc1ccc(O)cc1)NC(=O)[C@@H](NC(=O)[C@H](C)NC(=O)[C@H](CCC(=O)O)NC(=O)[C@H](CCC(=O)O)NC(=O)[C@H](CCC(=O)O)NC(=O)[C@H](CCSC)NC(=O)[C@H](CCC(N)=O)NC(=O)[C@H](CCSC)NC(=O)[C@H](CO)NC(=O)[C@H](CC(C)C)NC(=O)[C@H](CC(=O)O)NC(=O)[C@H](CO)NC(=O)[C@@H](NC(=O)[C@H](Cc1ccccc1)NC(=O)[C@@H](NC(=O)CNC(=O)[C@H](CCC(=O)O)NC(=O)CNC(=O)[C@@H](N)Cc1c[nH]cn1)[C@@H](C)O)[C@@H](C)O)C(C)C)C(=O)N[C@@H](CCC(=O)O)C(=O)N[C@@H](Cc1c[nH]c2ccccc12)C(=O)N[C@@H](CC(C)C)C(=O)N[C@@H](CCSC)C(=O)N[C@@H](CC(N)=O)C(=O)NCC(=O)NCC(=O)N1CCC[C@H]1C(=O)N[C@@H](CO)C(=O)N[C@@H](CO)C(=O)NCC(=O)N[C@@H](C)C(=O)N1CCC[C@H]1C(=O)N1CCC[C@H]1C(=O)N1CCC[C@H]1C(=O)N[C@@H](CO)C(=O)N[C@@H](CS)C(=O)O [TSME-4] (H-HGEGTFTSDLSMQMEEEAVYLFIEWLMNGGPSSGAPPPSC-OH) here?
A: Its EC50 is 31.2 nM.

Q: With CC[C@H](C)[C@H](NC(=O)[C@H](CC(C)C)NC(=O)[C@H](Cc1c[nH]c2ccccc12)NC(=O)[C@H](CCC(=O)O)NC(=O)[C@@H](NC(=O)[C@H](Cc1ccccc1)NC(=O)[C@H](CC(C)C)NC(=O)[C@H](Cc1ccc(O)cc1)NC(=O)[C@@H](NC(=O)[C@H](C)NC(=O)[C@H](CCC(=O)O)NC(=O)[C@H](CCC(=O)O)NC(=O)[C@H](CCC(=O)O)NC(=O)[C@H](CCSC)NC(=O)[C@H](CCC(N)=O)NC(=O)[C@@H](NC(=O)[C@H](CO)NC(=O)[C@H](CC(C)C)NC(=O)[C@H](CC(=O)O)NC(=O)[C@H](CO)NC(=O)[C@@H](NC(=O)[C@H](Cc1ccccc1)NC(=O)[C@@H](NC(=O)CNC(=O)[C@H](CCC(=O)O)NC(=O)CNC(=O)[C@@H](N)Cc1c[nH]cn1)[C@@H](C)O)[C@@H](C)O)[C@@H](C)CC)C(C)C)[C@@H](C)CC)C(=O)N[C@@H](CC(N)=O)C(=O)NCC(=O)NCC(=O)N1CCC[C@H]1C(=O)N[C@@H](CO)C(=O)N[C@@H](CO)C(=O)NCC(=O)N[C@@H](C)C(=O)N1CCC[C@H]1C(=O)N1CCC[C@H]1C(=O)N1CCC[C@H]1C(=O)N[C@@H](CO)C(=O)N[C@@H](CS)C(=O)O [TSME-5] (H-HGEGTFTSDLSIQMEEEAVYLFIEWLINGGPSSGAPPPSC-OH) as the compound, how does the EC50 (GLP-1R [2]) read?
A: The EC50 was 8.83 nM.

Q: With “HGEGTFTSDLSMQMEEEAVLLFIEWLMNGGPSSGAPPPSC” as the compound, how does the not cleaved (trypsin [5]) read?
A: Its not cleaved is 100% at 60 min.

Reference: article PMC5372594 (International Journal of Molecular Sciences, 2017)
